System: constituent cells in the peripheral nerve-mimicking microtissue
Assay: Cytoprotection by NAC and DEX in suspension culture (LIVE/DEAD, immunofluorescence)
Assay type: cell-based
Conditions: 1 mM NAC, 3 days
Source text: As a result of limitation in oxygen and nutrient exchange during the production process of peripheral nerve-mimicking microtissues, ROS accumulates in tissues, leading to cell damage and death. The Example is intended to present a cytoprotection method by dexamethasone (DEX) and N-acetylcysteine (NAC) to inhibit cell damage and death. PNSCs collected from the monolayer culture environment are suspended in a suspension culture medium at a density of 1.0E+06/mL. […] 1.0×10^5 cells per cm^2 area of a culture vessel is seeded in the ULA T75 flask (SPL Life Sciences) culture vessel. 1 mM NAC, 1 μM DEX, NAC and DEX were added simultaneously in 15 mL of suspension culture medium and cultured for 3 days. Cell death was assessed by LIVE/DEAD staining, and, for cell death, the survival rate was evaluated by calculating the total number of cells stained with DAPI and counting the number of cells that are positive for ethidium homodimer-1 (EthD-1). Moreover, the expression of p38 MAPK and cleaved caspase, which are factors that regulate cell death, and the degree of expression of p-Akt, an anti-cell death regulating factor, were evaluated through immunofluorescence staining.

## CC(=O)N[C@@H](CS)C(=O)O [NAC, N-acetylcysteine]
1 μM DEX, or both in suspension culture medium
  cytoprotective effect on constituent cells in the microtissue (survival rate, LIVE/DEAD, EthD-1): protective effect
1 μM DEX, or both, immunofluorescence staining
  expression of Hif, p38 MAPK, and cleaved caspase (cell death proteins): significantly inhibit

— US20240277902A1, “METHOD FOR MANUFACTURING PERIPHERAL NERVE-MIMICKING MICROTISSUE AND USES THEREOF” (INNOSTEM BIO, priority 2021, published 2024)
